Source: patent US5843889A, “Glycopeptide antibiotic derivatives” (Eli Lilly and Company, priority 1997, dated 1998)
≈ marks a conversion by molar mass, not a printed value.

Experiments:
Test in all cases: MIC, standard broth micro-dilution assay
Format in all cases: cell-based
[1] = tested on: Entercoccus faecalis 2041
Experimental: (§1) The formula I compounds have in vitro and in vivo activity against Gram-positive pathogenic bacteria. The MIC's were determined using a standard broth micro-dilution assay.

Entercoccus faecalis 276 = tested on: Entercoccus faecalis 276
Experimental: as §1

[2] = tested on: Entercoccus gallinarum 245
Experimental: as §1

Compound	MIC [1] [µg/mL]	MIC (Entercoccus faecalis 276) [µg/mL]	MIC [2] [µg/mL]
4-[3-trifluoromethylphenoxy]-3-nitrobenzyl [Compound 114]	0.25	1	2
CNC(CC(C)C)C(=O)NC1C(=O)NC(CC(N)=O)C(=O)NC2C(=O)NC3C(=O)NC(C(=O)NC(C(=O)O)c4cc(O)cc(O)c4-c4cc3ccc4O)C(OC3CC(C)(N)C(O)C(C)O3)c3ccc(c(Cl)c3)Oc3cc2cc(c3OC2OC(CO)C(O)C(O)C2OC2CC(C)(NCc3cccc4ccccc34)C(O)C(C)O2)Oc2ccc(cc2Cl)C1O (centres unmarked) [Compound 3, 1-naphthylmethyl]	≤ 0.06	≤ 0.06	≤ 0.06
C=CCOc1ccc(CNC2(C)CC(OC3C(Oc4c5cc6cc4Oc4ccc(cc4Cl)C(OC4CC(C)(N)C(O)C(C)O4)C4NC(=O)C(NC(=O)C6NC(=O)C(CC(N)=O)NC(=O)C(NC(=O)C(CC(C)C)NC)C(O)c6ccc(c(Cl)c6)O5)c5ccc(O)c(c5)-c5c(O)cc(O)cc5C(C(=O)O)NC4=O)OC(CO)C(O)C3O)OC(C)C2O)cc1 (centres unmarked) [Compound 7, 4-allyloxybenzyl]	0.125 (≈ 0.0719 µM)	1 (≈ 0.575 µM)	0.5 (≈ 0.288 µM)
CCCCCCCCCOc1ccc(CNC2(C)CC(OC3C(Oc4c5cc6cc4Oc4ccc(cc4Cl)C(OC4CC(C)(N)C(O)C(C)O4)C4NC(=O)C(NC(=O)C6NC(=O)C(CC(N)=O)NC(=O)C(NC(=O)C(CC(C)C)NC)C(O)c6ccc(c(Cl)c6)O5)c5ccc(O)c(c5)-c5c(O)cc(O)cc5C(C(=O)O)NC4=O)OC(CO)C(O)C3O)OC(C)C2O)cc1 (centres unmarked) [Compound 8, 4-nonyloxybenzyl]	4 (≈ 2.19 µM)	4 (≈ 2.19 µM)	8 (≈ 4.38 µM)
CNC(CC(C)C)C(=O)NC1C(=O)NC(CC(N)=O)C(=O)NC2C(=O)NC3C(=O)NC(C(=O)NC(C(=O)O)c4cc(O)cc(O)c4-c4cc3ccc4O)C(OC3CC(C)(N)C(O)C(C)O3)c3ccc(c(Cl)c3)Oc3cc2cc(c3OC2OC(CO)C(O)C(O)C2OC2CC(C)(NCc3cc4ccccc4c4ccccc34)C(O)C(C)O2)Oc2ccc(cc2Cl)C1O (centres unmarked) [Compound 11, 9-phenanthranylmethyl]	0.5 (≈ 0.28 µM)	1 (≈ 0.561 µM)	≤ 0.06
CNC(CC(C)C)C(=O)NC1C(=O)NC(CC(N)=O)C(=O)NC2C(=O)NC3C(=O)NC(C(=O)NC(C(=O)O)c4cc(O)cc(O)c4-c4cc3ccc4O)C(OC3CC(C)(N)C(O)C(C)O3)c3ccc(c(Cl)c3)Oc3cc2cc(c3OC2OC(CO)C(O)C(O)C2OC2CC(C)(NCc3ccc(OC)c4ccccc34)C(O)C(C)O2)Oc2ccc(cc2Cl)C1O (centres unmarked) [Compound 15, 4-methoxy-1-naphthylmethyl]	≤ 0.06	≤ 0.06	≤ 0.06
CNC(CC(C)C)C(=O)NC1C(=O)NC(CC(N)=O)C(=O)NC2C(=O)NC3C(=O)NC(C(=O)NC(C(=O)O)c4cc(O)cc(O)c4-c4cc3ccc4O)C(OC3CC(C)(N)C(O)C(C)O3)c3ccc(c(Cl)c3)Oc3cc2cc(c3OC2OC(CO)C(O)C(O)C2OC2CC(C)(NCc3ccc4ccc5cccc6ccc3c4c56)C(O)C(C)O2)Oc2ccc(cc2Cl)C1O (centres unmarked) [Compound 16, 1-pyrenylmethyl]	0.5 (≈ 0.277 µM)	2 (≈ 1.11 µM)	1 (≈ 0.553 µM)
CNC(CC(C)C)C(=O)NC1C(=O)NC(CC(N)=O)C(=O)NC2C(=O)NC3C(=O)NC(C(=O)NC(C(=O)O)c4cc(O)cc(O)c4-c4cc3ccc4O)C(OC3CC(C)(N)C(O)C(C)O3)c3ccc(c(Cl)c3)Oc3cc2cc(c3OC2OC(CO)C(O)C(O)C2OC2CC(C)(NCc3c4ccccc4c(C)c4ccccc34)C(O)C(C)O2)Oc2ccc(cc2Cl)C1O (centres unmarked) [Compound 17, 9-[10-methyl]anthranylmethyl]	0.25 (≈ 0.139 µM)	0.5 (≈ 0.278 µM)	0.5 (≈ 0.278 µM)
CNC(CC(C)C)C(=O)NC1C(=O)NC(CC(N)=O)C(=O)NC2C(=O)NC3C(=O)NC(C(=O)NC(C(=O)O)c4cc(O)cc(O)c4-c4cc3ccc4O)C(OC3CC(C)(N)C(O)C(C)O3)c3ccc(c(Cl)c3)Oc3cc2cc(c3OC2OC(CO)C(O)C(O)C2OC2CC(C)(NCc3c4ccccc4c(Cl)c4ccccc34)C(O)C(C)O2)Oc2ccc(cc2Cl)C1O (centres unmarked) [Compound 18, 9-[10-chloro]anthranylmethyl]	0.25 (≈ 0.138 µM)	1 (≈ 0.55 µM)	1 (≈ 0.55 µM)
CNC(CC(C)C)C(=O)NC1C(=O)NC(CC(N)=O)C(=O)NC2C(=O)NC3C(=O)NC(C(=O)NC(C(=O)O)c4cc(O)cc(O)c4-c4cc3ccc4O)C(OC3CC(C)(N)C(O)C(C)O3)c3ccc(c(Cl)c3)Oc3cc2cc(c3OC2OC(CO)C(O)C(O)C2OC2CC(C)(NCc3cc4ccccc4s3)C(O)C(C)O2)Oc2ccc(cc2Cl)C1O (centres unmarked) [Compound 19, 2-benzthienylmethyl]	≤ 0.06	≤ 0.06	≤ 0.06
CCCCCc1ccc(-c2ccc(CNC3(C)CC(OC4C(Oc5c6cc7cc5Oc5ccc(cc5Cl)C(OC5CC(C)(N)C(O)C(C)O5)C5NC(=O)C(NC(=O)C7NC(=O)C(CC(N)=O)NC(=O)C(NC(=O)C(CC(C)C)NC)C(O)c7ccc(c(Cl)c7)O6)c6ccc(O)c(c6)-c6c(O)cc(O)cc6C(C(=O)O)NC5=O)OC(CO)C(O)C4O)OC(C)C3O)cc2)cc1 (centres unmarked) [Compound 22, 4-[4-pentylphenyl]benzyl]	2 (≈ 1.09 µM)	4 (≈ 2.19 µM)	1 (≈ 0.547 µM)
CNC(CC(C)C)C(=O)NC1C(=O)NC(CC(N)=O)C(=O)NC2C(=O)NC3C(=O)NC(C(=O)NC(C(=O)O)c4cc(O)cc(O)c4-c4cc3ccc4O)C(OC3CC(C)(N)C(O)C(C)O3)c3ccc(c(Cl)c3)Oc3cc2cc(c3OC2OC(CO)C(O)C(O)C2OC2CC(C)(NCCc3ccc(Oc4ccccc4)cc3)C(O)C(C)O2)Oc2ccc(cc2Cl)C1O (centres unmarked) [Compound 33, 4-phenoxyphenethyl]	≤ 0.06	≤ 0.06	–
CNC(CC(C)C)C(=O)NC1C(=O)NC(CC(N)=O)C(=O)NC2C(=O)NC3C(=O)NC(C(=O)NC(C(=O)O)c4cc(O)cc(O)c4-c4cc3ccc4O)C(OC3CC(C)(N)C(O)C(C)O3)c3ccc(c(Cl)c3)Oc3cc2cc(c3OC2OC(CO)C(O)C(O)C2OC2CC(C)(NCC=Cc3ccccc3)C(O)C(C)O2)Oc2ccc(cc2Cl)C1O (stereo not drawn) [Compound 38, trans-cinnamyl]	≤ 0.06	0.5 (≈ 0.293 µM)	–
CNC(CC(C)C)C(=O)NC1C(=O)NC(CC(N)=O)C(=O)NC2C(=O)NC3C(=O)NC(C(=O)NC(C(=O)O)c4cc(O)cc(O)c4-c4cc3ccc4O)C(OC3CC(C)(N)C(O)C(C)O3)c3ccc(c(Cl)c3)Oc3cc2cc(c3OC2OC(CO)C(O)C(O)C2OC2CC(C)(NCc3ccc4c(c3)CCO4)C(O)C(C)O2)Oc2ccc(cc2Cl)C1O (stereo not drawn) [Compound 82, S-[2,3-dihydrobenzfuryl]methyl]	0.5 (≈ 0.29 µM)	≤ 0.06	–
CNC(CC(C)C)C(=O)NC1C(=O)NC(CC(N)=O)C(=O)NC2C(=O)NC3C(=O)NC(C(=O)NC(C(=O)O)c4cc(O)cc(O)c4-c4cc3ccc4O)C(OC3CC(C)(N)C(O)C(C)O3)c3ccc(c(Cl)c3)Oc3cc2cc(c3OC2OC(CO)C(O)C(O)C2OC2CC(C)(NCc3ccc(OC(C)=O)cc3)C(O)C(C)O2)Oc2ccc(cc2Cl)C1O (centres unmarked) [Compound 138, 4-acetoxybenzyl]	≤ 0.06	≤ 0.06	–
CNC(CC(C)C)C(=O)NC1C(=O)NC(CC(N)=O)C(=O)NC2C(=O)NC3C(=O)NC(C(=O)NC(C(=O)O)c4cc(O)cc(O)c4-c4cc3ccc4O)C(OC3CC(C)(N)C(O)C(C)O3)c3ccc(c(Cl)c3)Oc3cc2cc(c3OC2OC(CO)C(O)C(O)C2OC2CC(C)(NCCCCCCCCc3ccccc3)C(O)C(C)O2)Oc2ccc(cc2Cl)C1O (centres unmarked) [Compound 176, 8-phenyloctyl]	–	2 (≈ 1.12 µM)	2 (≈ 1.12 µM)
CNC(CC(C)C)C(=O)NC1C(=O)NC(CC(N)=O)C(=O)NC2C(=O)NC3C(=O)NC(C(=O)NC(C(=O)O)c4cc(O)cc(O)c4-c4cc3ccc4O)C(O)c3ccc(c(Cl)c3)Oc3cc2cc(c3OC2OC(CO)C(O)C(O)C2OC2CC(C)(NCc3ccc(-c4ccccc4)cc3)C(O)C(C)O2)Oc2ccc(cc2Cl)C1O (centres unmarked) [Compound 181, 4-phenylbenzyl]	–	2 (≈ 1.24 µM)	≤ 0.06
CCCCCCCCC#CCCCCCCNC1(C)CC(OC2C(Oc3c4cc5cc3Oc3ccc(cc3Cl)C(OC3CC(C)(N)C(O)C(C)O3)C3NC(=O)C(NC(=O)C5NC(=O)C(CC(N)=O)NC(=O)C(NC(=O)C(CC(C)C)NC)C(O)c5ccc(c(Cl)c5)O4)c4ccc(O)c(c4)-c4c(O)cc(O)cc4C(C(=O)O)NC3=O)OC(CO)C(O)C2O)OC(C)C1O (centres unmarked) [Compound 207, 7-hexadecynyl]	–	0.25 (≈ 0.138 µM)	1 (≈ 0.552 µM)
C=CCCCCCCCCNC1(C)CC(OC2C(Oc3c4cc5cc3Oc3ccc(cc3Cl)C(OC3CC(C)(N)C(O)C(C)O3)C3NC(=O)C(NC(=O)C5NC(=O)C(CC(N)=O)NC(=O)C(NC(=O)C(CC(C)C)NC)C(O)c5ccc(c(Cl)c5)O4)c4ccc(O)c(c4)-c4c(O)cc(O)cc4C(C(=O)O)NC3=O)OC(CO)C(O)C2O)OC(C)C1O (centres unmarked) [Compound 214, 9-decenyl]	–	0.25 (≈ 0.144 µM)	2 (≈ 1.16 µM)
CNC(CC(C)C)C(=O)NC1C(=O)NC(CC(N)=O)C(=O)NC2C(=O)NC3C(=O)NC(C(=O)NC(C(=O)O)c4cc(O)cc(O)c4-c4cc3ccc4O)C(OC3CC(C)(N)C(O)C(C)O3)c3ccc(c(Cl)c3)Oc3cc2cc(c3OC2OC(CO)C(O)C(O)C2OC2CC(C)(NCc3ccc(-c4cccs4)cc3)C(O)C(C)O2)Oc2ccc(cc2Cl)C1O (centres unmarked) [Compound 218, 4-[2-thienyl]benzyl]	–	≤ 0.06	≤ 0.06
CNC(CC(C)C)C(=O)NC1C(=O)NC(CC(N)=O)C(=O)NC2C(=O)NC3C(=O)NC(C(=O)NC(C(=O)O)c4cc(O)cc(O)c4-c4cc3ccc4O)C(OC3CC(C)(N)C(O)C(C)O3)c3ccc(c(Cl)c3)Oc3cc2cc(c3OC2OC(CO)C(O)C(O)C2OC2CC(C)(NCc3ccc(-c4ccccc4C)c(C)c3)C(O)C(C)O2)Oc2ccc(cc2Cl)C1O (centres unmarked) [Compound 237, 4-[2-methylphenyl]-3-methylbenzyl]	–	1 (≈ 0.56 µM)	1 (≈ 0.56 µM)
